Results published in patent publication US20230131535A1, “ARYLMETHYLENE AROMATIC COMPOUNDS AS Kv1.3 POTASSIUM SHAKER CHANNEL BLOCKERS” (D. E. Shaw Research, LLC, priority 2019, published 2023).
Read-outs that look alike come from different tables or passages of the source.

Legend:
[1] = biological target: T1, Kv1.3 potassium channel (Homo sapiens, UniProt P22001); test: Kv1.3 potassium channel blocker activity, automated whole-cell patch clamp (Patchliner); assay type: cell-based; settings: CHO-K1 cells stably expressing Kv1.3, whole cell current, pulses -90 mV to +40 mV, read-out: Kv1.3_IC50
T1 construct: expressed in transfected cells
Description: Example 67. Evaluation of Kv1.3 Potassium Channel Blocker Activities
The assay described below is used to evaluate the disclosed compound's activities as Kv1.3 potassium channel blockers.
CHO-K1 cells stably expressing Kv1.3 were grown in DMEM containing 10% heat-inactivated FBS, 1 mM Sodium Pyruvate, 2 mM L-Glutamine and G418 (500 μg/ml). Cells were grown in culture flasks at 37° C. in a 5% CO2-humidified incubator.
(§1) The cells were bathed in an extracellular solution containing 140 mM NaCl, 4 mM KCl, 2 mM CaCl2), 1 mM MgCl2, 5 mM Glucose, 10 mM HEPES; pH adjusted to 7.4 with NaOH; 295-305 mOsm. The internal solution contained 50 mM KCl, 10 mM NaCl, 60 mM KF, 20 mM EGTA, 10 mM HEPES; pH adjusted to 7.2 with KOH; 285 mOsm. All compounds were dissolved in DMSO at 30 mM. Compound stock solutions were freshly diluted with external solution to concentrations of 30 nM, 100 nM, 300 nM, 1 μM, 3 μM, 10 μM, 30 μM and 100 μM. The highest content of DMSO (0.3%) was present in 100 μM.
The currents were evoked by applying 100 ms depolarizing pulses from −90 mV (holding potential) to +40 mV were applied with 0.1 Hz frequency. Control (compound-free) and compound pulse trains for each compound concentration applied contained 20 pulses. 10 second breaks were used between pulse trains (see Table 4 below).
Whole cell current recordings and compound application were enabled by means of an automated patch clamp platform Patchliner (Nanion Technologies GmbH). EPC 10 patch clamp amplifier (HIEKA Elektronik Dr. Schulze GmbH) along with Patchmaster software (HIEKA Elektronik Dr. Schulze GmbH) was used for data acquisition. Data were sampled at 10 kHz without filtering. Passive leak currents were subtracted online using a P/4 procedure (HEKA Elektronik Dr. Schulze GmbH). Increasing compound concentrations were applied consecutively to the same cell without washouts in between. Total compound incubation time before the next pulse train was not longer than 10 seconds. Peak current inhibition was observed during compound equilibration.
(§2) AUC and peak values were obtained with Patchmaster (HEKA Elektronik Dr. Schulze GmbH). To determine IC50, the last single pulse in the pulse train corresponding to a given compound concentration was used. Obtained AUC and peak values in the presence of compound were normalized to control values in the absence of compound. Using Origin (OridinLab), IC50 was derived from data fit to Hill equation: Icompound/Icontrol=(100−A)/(1+([compound]/IC50)nH)+A, where IC50 value is the concentration at which current inhibition is half-maximal, [compound] is the applied compound concentration, A is the fraction of current that is not blocked and nH is the Hill coefficient.

[2] = biological target: T2, hERG channel (Homo sapiens, UniProt Q12809); test: hERG electrophysiology, automated whole-cell patch clamp (Patchliner); assay type: cell-based; settings: CHO-K1 cells stably expressing hERG, whole cell current, tail current protocol, read-out: hERG_IC50
T2 construct: expressed in transfected cells
Description: Example 68. Evaluation of hERG Activities
This assay is used to evaluate the disclosed compounds' inhibition activities against the hERG channel.
CHO-K1 cells stably expressing hERG were grown in Ham's F-12 Medium with Glutamine containing 10% heat-inactivated FBS, 1% Penicillin/Streptomycin, Hygromycin (100 μg/ml) and G418 (100 μg/ml). Cells were grown in culture flasks at 37° C. in a 5% CO2-humidified incubator.
as §1
The voltage protocol (see Table 5) was designed to simulate voltage changes during a cardiac action potential with a 300 ms depolarization to +20 mV (analogous to the plateau phase of the cardiac action potential), a repolarization for 300 ms to −50 mV (inducing a tail current) and a final step to the holding potential of −80 mV. The pulse frequency was 0.3 Hz. Control (compound-free) and compound pulse trains for each compound concentration applied contained 70 pulses.
Whole cell current recordings and compound application were enabled by means of an automated patch clamp platform Patchliner (Nanion). EPC 10 patch clamp amplifier (HEKA) along with Patchmaster software (HEKA Elektronik Dr. Schulze GmbH) was used for data acquisition. Data were sampled at 10 kHz without filtering. Increasing compound concentrations were applied consecutively to the same cell without washouts in between.
as §2, with “PEAK” for “peak”, “IC50” for “IC50,”, “IC50” for “IC50 value”

T2 sequence (Q12809 whole entry): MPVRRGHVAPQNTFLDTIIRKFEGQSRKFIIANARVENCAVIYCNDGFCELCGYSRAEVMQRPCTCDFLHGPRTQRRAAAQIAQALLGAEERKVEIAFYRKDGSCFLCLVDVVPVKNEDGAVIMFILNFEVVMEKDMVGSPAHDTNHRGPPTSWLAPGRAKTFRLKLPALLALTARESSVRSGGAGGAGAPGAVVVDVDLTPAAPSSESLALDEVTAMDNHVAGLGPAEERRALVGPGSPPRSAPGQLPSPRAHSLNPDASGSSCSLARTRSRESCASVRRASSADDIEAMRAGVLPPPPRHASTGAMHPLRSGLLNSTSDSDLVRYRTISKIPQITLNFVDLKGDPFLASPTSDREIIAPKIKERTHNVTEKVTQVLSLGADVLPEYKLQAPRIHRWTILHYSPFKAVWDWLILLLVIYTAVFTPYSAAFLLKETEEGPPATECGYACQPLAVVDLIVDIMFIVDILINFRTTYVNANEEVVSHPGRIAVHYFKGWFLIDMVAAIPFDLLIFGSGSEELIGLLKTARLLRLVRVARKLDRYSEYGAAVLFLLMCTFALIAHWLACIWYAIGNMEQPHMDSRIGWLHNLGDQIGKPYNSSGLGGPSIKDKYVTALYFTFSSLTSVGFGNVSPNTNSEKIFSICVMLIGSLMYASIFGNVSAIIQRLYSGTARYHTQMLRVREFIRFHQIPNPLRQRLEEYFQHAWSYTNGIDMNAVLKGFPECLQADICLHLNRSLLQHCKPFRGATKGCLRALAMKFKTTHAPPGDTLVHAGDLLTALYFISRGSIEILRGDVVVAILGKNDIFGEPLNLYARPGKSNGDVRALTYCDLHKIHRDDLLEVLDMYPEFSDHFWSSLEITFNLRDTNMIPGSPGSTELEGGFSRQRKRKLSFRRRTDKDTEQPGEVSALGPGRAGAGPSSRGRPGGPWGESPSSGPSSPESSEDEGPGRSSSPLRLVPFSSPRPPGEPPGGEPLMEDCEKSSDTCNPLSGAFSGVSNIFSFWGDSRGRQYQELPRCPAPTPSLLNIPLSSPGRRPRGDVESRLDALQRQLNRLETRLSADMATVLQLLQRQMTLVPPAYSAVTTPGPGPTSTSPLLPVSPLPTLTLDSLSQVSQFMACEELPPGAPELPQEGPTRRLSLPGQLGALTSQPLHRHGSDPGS
T1 sequence (P22001 whole entry): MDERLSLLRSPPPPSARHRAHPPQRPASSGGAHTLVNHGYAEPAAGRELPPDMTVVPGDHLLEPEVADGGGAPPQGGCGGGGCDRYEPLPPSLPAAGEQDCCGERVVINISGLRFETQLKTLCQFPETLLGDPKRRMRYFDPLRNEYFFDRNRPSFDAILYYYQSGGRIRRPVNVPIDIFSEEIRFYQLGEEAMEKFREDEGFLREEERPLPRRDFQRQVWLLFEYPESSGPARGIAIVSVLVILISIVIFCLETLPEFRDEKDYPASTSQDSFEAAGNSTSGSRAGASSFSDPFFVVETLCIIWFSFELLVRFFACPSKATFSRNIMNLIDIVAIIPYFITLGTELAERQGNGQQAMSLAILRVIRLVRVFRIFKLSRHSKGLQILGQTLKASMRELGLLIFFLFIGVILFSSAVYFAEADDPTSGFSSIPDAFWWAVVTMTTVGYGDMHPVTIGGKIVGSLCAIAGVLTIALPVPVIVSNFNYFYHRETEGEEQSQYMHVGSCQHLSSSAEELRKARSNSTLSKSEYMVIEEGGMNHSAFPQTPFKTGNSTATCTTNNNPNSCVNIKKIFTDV

Question: `Cc1cnccc1C(O)c1c(O)ccc(Cl)c1Cl` (single isomer, unassigned) [Compound 46, 3,4-dichloro-2-[hydroxy(3-methylpyridin-4-yl)methyl]phenol] was tested. Which IC50 ([1]; Table 6) did it give?
Answer: < 1 µM

Question: What about the IC50 ([2]; Table 6) of the same compound?
Answer: > 30 µM

Question: Which IC50 ([1]; Table 6) does the source give for `NC(c1ccncc1)c1c(O)ccc2ccccc12` (stereo not shown) [Compound 17, 1-[amino(pyridin-4-yl)methyl]naphthalen-2-ol] here?
Answer: < 10 µM

Question: What about the IC50 ([2]; Table 6) of the same compound?
Answer: < 30 µM

Question: How did the IC50 ([1]; Table 6) turn out when `CC(=O)NC(c1ccncc1)c1c(O)ccc(Cl)c1Cl` (single isomer, unassigned) [Compound 38, N-((2,3-dichloro-6-hydroxyphenyl)(pyridin-4-yl)methyl)acetamide] was run?
Answer: < 30 µM

Question: What about the IC50 ([2]; Table 6) of the same compound?
Answer: > 30 µM

Question: Which IC50 ([1]; Table 6) does the source give for `Oc1ccc(Cl)c(Cl)c1C(O)c1ccncc1` (stereo not shown) [Compound 29, 3,4-dichloro-2-[hydroxy(pyridin-4-yl)methyl]phenol] here?
Answer: < 1 µM

Question: And the IC50 ([2]; Table 6)?
Answer: > 30 µM

Question: Which results are given for `O=C(NC(c1ccncc1)c1c(O)ccc(Cl)c1Cl)C1CNC1` (stereo not shown) [Compound 42, N-[(2,3-dichloro-6-hydroxyphenyl)(pyridin-4-yl)methyl]azetidine-3-carboxamide]?
Answer: IC50 ([1]; Table 6): < 1 µM; IC50 ([2]; Table 6): > 30 µM

Question: Which IC50 ([1]; Table 6) does the source give for `Oc1cc(Cl)c(Cl)cc1C(O)c1ccncc1` (stereo not shown) [Compound 27, 4,5-dichloro-2-[hydroxy(pyridin-4-yl)methyl]phenol] here?
Answer: < 10 µM

Question: And the IC50 ([2]; Table 6)?
Answer: > 30 µM

Question: How did the IC50 ([1]; Table 6) turn out when `CC(=O)CC(c1ccncc1)c1c(O)ccc2ccccc12` (stereo not shown) [Compound 18] was run?
Answer: < 10 µM

Question: What about the IC50 ([2]; Table 6) of the same compound?
Answer: > 30 µM

Question: For `C[C@@H](NC(=O)[C@H]1CCCNC1)c1c(O)ccc(Cl)c1Cl` [Compound 78, (3S)-N-[(1R)-1-(2,3-dichloro-6-hydroxyphenyl)ethyl]piperidine-3-carboxamide], which IC50 ([1]; Table 7) is on record?
Answer: < 1 µM

Question: What about the IC50 ([2]; Table 7) of the same compound?
Answer: > 30 µM

Question: Which IC50 ([1]; Table 6) does the source give for `NC(c1ccncc1)c1c(O)ccc(Cl)c1Cl` (stereo not shown) [Compound 11, 2-[amino(pyridin-4-yl)methyl]-3,4-dichlorophenol] here?
Answer: < 10 µM

Question: And the IC50 ([2]; Table 6)?
Answer: > 30 µM

Question: With `Nc1cc(Cc2cc(Cl)c(Cl)cc2O)ccn1` [Compound 2, 2-[(2-aminopyridin-4-yl)methyl]-4,5-dichlorophenol] as the compound, how does the IC50 ([1]; Table 6) read?
Answer: < 10 µM

Question: And the IC50 ([2]; Table 6)?
Answer: < 30 µM

Question: Which results are given for `O=C(NC(c1ccncc1)c1cc(Cl)c(Cl)cc1O)C1CNC1` (stereo not shown) [Compound 26, N-[(4,5-dichloro-2-hydroxyphenyl)(pyridin-4-yl)methyl]azetidine-3-carboxamide]?
Answer: IC50 ([1]; Table 6): < 1 µM; IC50 ([2]; Table 6): > 30 µM

Question: Which IC50 ([1]; Table 6) does the source give for `CN(C(=O)C1CNC1)C(c1ccncc1)c1c(O)ccc(Cl)c1Cl` (stereo not shown) [Compound 71, N-[(2,3-dichloro-6-hydroxyphenyl)(pyridin-4-yl)methyl]-N-methylazetidine-3-carboxamide] here?
Answer: < 30 µM

Question: `CN1CC(C(=O)NC(c2ccncc2)c2c(O)ccc(Cl)c2Cl)C1` (single isomer, unassigned) [Compound 75, N-[(2,3-dichloro-6-hydroxyphenyl)(pyridin-4-yl)methyl]-1-methylazetidine-3-carboxamide] was tested. Which IC50 ([1]; Table 6) did it give?
Answer: < 10 µM

Question: Which IC50 ([1]; Table 6) does the source give for `O=C(c1ccncc1)c1c(O)ccc(Cl)c1Cl` [Compound 61, 3,4-dichloro-2-(pyridine-4-carbonyl)phenol] here?
Answer: < 10 µM

Question: Which IC50 ([1]; Table 7) does the source give for `Cc1cc(O)c(C(N)CC(=O)NC2CNC2)cc1Cl` (stereo not shown) [Compound 97, 3-amino-N-(azetidin-3-yl)-3-(5-chloro-2-hydroxy-4-methylphenyl)propenamide] here?
Answer: < 1 µM

Question: `O=C(NC(c1ccncc1)c1c(O)ccc(Cl)c1Cl)c1cn[nH]c1` (stereo not shown) [Compound 57, N-[(2,3-dichloro-6-hydroxyphenyl)(pyridin-4-yl)methyl]-1H-pyrazole-4-carboxamide] was tested. Which IC50 ([1]; Table 6) did it give?
Answer: < 30 µM

Question: How did the IC50 ([1]; Table 6) turn out when `Cn1cc(C(O)c2c(O)ccc(Cl)c2Cl)ccc1=O` (stereo not shown) [Compound 60, 5-[(2,3-dichloro-6-hydroxyphenyl)(hydroxy)methyl]-1-methyl-1,2-dihydropyridin-2-one] was run?
Answer: < 1 µM

Question: For `C[C@H](NC(=O)C1CNC1)c1cc(Cl)c(Cl)cc1O` [Compound 86, N-[(1S)-1-(4,5-dichloro-2-hydroxyphenyl)ethyl]azetidine-3-carboxamide], which IC50 ([1]; Table 7) is on record?
Answer: < 10 µM

Question: How did the IC50 ([1]; Table 6) turn out when `NC(c1ccccc1)c1cc(Cl)c(Cl)cc1O` (stereo not shown) [Compound 5, 2-[amino(phenyl)methyl]-4,5-dichlorophenol] was run?
Answer: < 30 µM

Question: How did the IC50 ([1]; Table 7) turn out when `C[C@H](NC(=O)C1CN(C(=O)CO)C1)c1c(O)ccc(Cl)c1Cl` [Compound 88, N-[(1S)-1-(2,3-dichloro-6-hydroxyphenyl)ethyl]-1-(2-hydroxyacetyl) azetidine-3-carboxamide] was run?
Answer: < 10 µM

Question: For `COCC(=O)NC(c1ccncc1)c1c(O)ccc(Cl)c1Cl` (stereo not shown) [Compound 63, N-[(2,3-dichloro-6-hydroxyphenyl)(pyridin-4-yl)methyl]-2-methoxyacetamide], which IC50 ([1]; Table 6) is on record?
Answer: < 10 µM

Question: For `CC(=O)NC(c1ccncc1)c1cc(Cl)c(Cl)cc1O` (stereo not shown) [Compound 19, N-[(4,5-dichloro-2-hydroxyphenyl)(pyridin-4-yl)methyl]acetamide], which IC50 ([1]; Table 6) is on record?
Answer: < 10 µM

Question: For `NC(=O)c1cc(C(O)c2c(O)ccc(Cl)c2Cl)ccn1` (stereo not shown) [Compound 23, 4-[(2,3-dichloro-6-hydroxyphenyl)(hydroxy)methyl]pyridine-2-carboxamide], which IC50 ([1]; Table 6) is on record?
Answer: < 10 µM

Question: `Oc1ccc(Cl)c(Cl)c1C(O)c1cnccn1` (stereo not shown) [Compound 54, 3,4-dichloro-2-[hydroxy(pyrazin-2-yl)methyl]phenol] was tested. Which IC50 ([1]; Table 6) did it give?
Answer: < 10 µM

Question: Which IC50 ([1]; Table 6) does the source give for `O=C(N[C@H](c1ccncc1)c1c(O)ccc(Cl)c1Cl)[C@H]1CCCN1` (single isomer, unassigned) [Compound 66] here?
Answer: < 30 µM

Question: Which IC50 ([1]; Table 6) does the source give for `O=C(NC(c1ccncc1)c1c(O)ccc(Cl)c1Cl)C1CNC1` (single isomer, unassigned) [Compound 49, N-[(2,3-dichloro-6-hydroxyphenyl)(pyridin-4-yl)methyl]azetidine-3-carboxamide] here?
Answer: < 10 µM

Question: For `NC(c1ccccc1)c1c(O)ccc(Cl)c1Cl` (stereo not shown) [Compound 3, 2-[amino(phenyl)methyl]-3,4-dichlorophenol], which IC50 ([1]; Table 6) is on record?
Answer: < 30 µM

Question: Which IC50 ([1]; Table 7) does the source give for `Cc1cc(O)c([C@@H](N)CNC(=O)C2CNC2)cc1Cl` [Compound 95, N-[(2R)-2-amino-2-(5-chloro-2-hydroxy-4-methylphenyl)ethyl] azetidine-3-carboxamide] here?
Answer: < 10 µM

Question: Which IC50 ([1]; Table 7) does the source give for `C[C@H](NC(=O)[C@@H]1CCCNC1)c1c(O)ccc(Cl)c1Cl` [Compound 81, (3R)-N-[(1S)-1-(2,3-dichloro-6-hydroxyphenyl)ethyl]piperidine-3-carboxamide] here?
Answer: < 1 µM

Question: Which IC50 ([1]; Table 6) does the source give for `Oc1ccc(Cl)c(Cl)c1Cc1ccncc1` [Compound 22, 3,4-dichloro-2-[(pyridin-4-yl)methyl]phenol] here?
Answer: < 10 µM

Question: With `C[C@H](NC(=O)C1(O)CNC1)c1c(O)ccc(Cl)c1Cl` [Compound 87] as the compound, how does the IC50 ([1]; Table 7) read?
Answer: < 10 µM

Question: For `NC(c1ccc(=O)[nH]c1)c1cc(Cl)c(Cl)cc1O` (stereo not shown) [Compound 15, 5-[amino(4,5-dichloro-2-hydroxyphenyl)methyl]-1,2-dihydropyridin-2-one], which IC50 ([1]; Table 6) is on record?
Answer: < 10 µM
